Data: patent publication US12083123B2, “Method for the detection of drug-induced organ or tissue injury in IMPDH inhibitor treated patients” (University of Cincinnati, priority 2020, dated 2024)

Key:
mouse liver hepatocytes = assay: Mouse study: liver histology and EM image analysis of MMF-treated vs untreated mice; format: in vivo
Experimental: The body weights of the mice were recoded every day. […] The rest of the mice were sacrificed on day 14 and a necropsy was performed on the surviving mice.
H&E and trichrome staining was performed on each liver sections from 3 MMF treated and 5 untreated mice at a CLIA-certified laboratory at CHLA.
Ultrastructural analysis was performed as described for human liver biopsies on the mouse liver tissue from the MMF treated and untreated mice. The EM images were captured digitally at the same magnification (18,000×). Thirty hepatocytes per mouse liver are selected randomly and the numbers of the mitochondria and lipid droplets were counted per hepatocytes using the digital images. In addition, the greatest dimensions of randomly selected 50 mitochondria per hepatocytes from each mouse were measured using an image analysis software, Cellsens® (Olympus, Tokyo, Japan).
The numbers of the mitochondria and the lipid droplets and the sizes of the mitochondria of the hepatocytes from MMF treated and untreated mice were compared by repeated measures mixed model analysis, with […] as a random effect and group as fixed, at a 0.005 significance level, using Prism8 software (Graphpad Software, San Diego, CA, USA).

transplanted liver = assay: Transplant liver biopsies (histology, EM, LFTs) of liver transplant recipients treated with MMF; format: in vivo, human
Experimental: One biopsy from a patient (Case 4) was performed for surveillance purpose. Ultrastructural analysis included obtaining a small portion of the liver biopsies and post-fixing in osmium tetroxide and embedded in epoxy resin. Ultra-thin sections were stained with uranyl acetate/lead citrate. Detailed evaluation was made using Morgagni transmission electron microscope (EM, FEI, Hillsboro, OR). 2 H&E (hematoxylin and eosin) and 5 special (1 each for PAS, PASD, reticulin, iron and trichrome) stained slides were used per biopsy. ACR was diagnosed and scored using the Rejection Activity Index (RAI), which included: 1) portal inflammation (score 1-3), 2) bile duct damage (score 1-3), and 3) venous endothelial inflammation (score 1-3). Each score was added (RAI) and the degree of ACR was scored as follows: RAI=0-9; <3: borderline/indeterminate ACR, 3-4: mild ACR, 5-7: moderate ACR and >7: severe ACR. (Banff; 1997). Nonspecific hepatocellular injury is often referred to “reactive changes”. Histologic features of “reactive changes” include enlarged hepatocytes with hydropic changes (expanded, pale to clear cytoplasm) and coarse eosinophilic granules (e.g. mega-mitochondria), and nuclei with anisonucleosis and bi- and multi-nucleation, cholestasis, steatosis and necrosis. Necrosis can range from single cell necrosis (acidophil bodies) to rarely broad necrosis with collapsed lobules.

hepatic Kupffer cells = assay: Mouse model treated with MMF by oral gavage: light microscopy of tissues, Kupffer cells and IMPDH2 expression; format: in vivo; conditions: MMF 120 mg/kg daily for over two weeks by oral gavage
Experimental: To further study the potential changes caused by MMF treatment, an animal model (mouse) was used and treated with MMF 120 mg/kg daily for over two weeks by oral gavage. As a control, another group of mice was treated with the vehicle used for MMF. Among the issues investigated (e.g., liver, kidney, ovary, brain, white adipose and brown adipose tissues, pancreas, stomach, lung), a major change that is easily detected by light microscope (400× magnification) is pointed on hepatic Kupffer cells. […] In addition, IMPDH2 expression levels within the Kupffer cells were increased compared to MMF-untreated mouse liver.

Kupffer cells = assay: Human liver specimens from MMF-treated patients: macrophages in livers (Kupffer cells); format: in vivo
[1] = cited from earlier work
[2] = test system: WT-PI5P4Kβ/Pip4K2b−/− cells; assay: Lysosomal acidification in serum starved WT-PI5P4Kβ/Pip4K2b−/− cells; format: cell-based; conditions: MPA treatment for 2 h
[3] = EM image analysis, MMF-treated for 14 days vs untreated group
[4] = Case 1-3, liver transplant recipients treated with MMF
[5] = the 11 patients with elevated LFTs

SMILES	degree of mitochondrial pleomorphism (size differences) in the hepatocytes (mouse liver hepatocytes; [3])	numbers of lipids (lipid droplets) in the hepatocytes (mouse liver hepatocytes; [3])	numbers of mitochondria in the hepatocytes (mouse liver hepatocytes; [3])	death during treatment (mouse liver hepatocytes; MMF treated group, 14 day treatment)	liver histology (H&E) (mouse liver hepatocytes; MMF-treated for 14 days vs untreated mice)	electron microscopy (EM) finding in transplant liver biopsies (transplanted liver; [4])	histology of transplant liver biopsies (transplanted liver; [4])	LFTs after stopping or reducing MMF (transplanted liver; Case 1 and 2)	changes in the other tissues by standard light microscopic analysis (hepatic Kupffer cells; kidney, ovary, brain, adipose tissues, pancreas, stomach, lung)	Kupffer cell size and numbers (hepatic Kupffer cells; light microscope 400×, vs vehicle)	IMPDH2 expression levels within the Kupffer cells (hepatic Kupffer cells; vs MMF-untreated mouse liver)	number and size of macrophages in livers (Kupffer cells) (Kupffer cells)	patients with elevated LFTs ([1]; of 79 renal transplant recipients treated with MMF) [%]	abnormal LFTs after reduction or withdrawal of MMF ([1]; renal transplant recipients with elevated LFTs)	ALT, median and range [1, 5]	AST, median and range [1, 5]	lysosomal acidification [2]
COc1c(C)c2c(c(O)c1C/C=C(\C)CCC(=O)OCCN1CCOCC1)C(=O)OC2 [MMF, mycophenolate mofetil]	significantly increased	significantly increased	significantly increased	Two mice in the MMF treated group died	no recognizable differences	mitochondrial pleomorphism and crystalloid inclusions	only mild nonspecific hepatocellular injury	improved	did not show any significant changes	enlarged (hyperplasia/activated) and increased in their numbers	increased	significant increase	13.9	normalized	222.0 (51-508) U/L	83.0 (50-123) U/L	–
COc1c(C)c2c(c(O)c1C/C=C(\C)CCC(=O)O)C(=O)OC2 [MPA, mycophenolic acid]	–	–	–	–	–	–	–	–	–	–	–	–	–	–	–	–	suppressed lysosomal acidification
